One block for each molecule: values may come before it. Peptide text beside a SMILES is read from it. * marks the point of attachment. Biotin = O=C1N[C@H]2[C@H](CS[C@H]2CCCCC(=O)*)N1
How the values were obtained:
Type in all cases: binding
GST-ARNO(wt) = target: T1, GST-ARNO(wt) (Homo sapiens, UniProt Q99418); test: a2N-derived peptide pull-down assay with GST-ARNO(wt); parameters: key to interaction with ARNO (asterisk mark in Table 1): The interacting peptides are indicated in bold with an asterisk (*)
T1 construct: i) 1-400aa, full length ARNO(wt); made in house; host or cells: E. coli BL21(DE3)
T1 sequence (Q99418 1-400): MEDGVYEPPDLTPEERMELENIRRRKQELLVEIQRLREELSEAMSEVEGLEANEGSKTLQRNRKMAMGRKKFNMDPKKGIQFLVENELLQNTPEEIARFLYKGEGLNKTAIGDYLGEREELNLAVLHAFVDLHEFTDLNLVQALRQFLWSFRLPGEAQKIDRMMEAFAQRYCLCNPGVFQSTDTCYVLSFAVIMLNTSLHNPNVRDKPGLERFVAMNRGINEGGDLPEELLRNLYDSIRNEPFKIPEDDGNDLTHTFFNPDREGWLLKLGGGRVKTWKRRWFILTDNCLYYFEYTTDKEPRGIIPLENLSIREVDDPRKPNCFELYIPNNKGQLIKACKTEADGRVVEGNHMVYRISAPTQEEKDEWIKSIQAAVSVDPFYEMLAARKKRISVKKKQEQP
Procedure: FIG. 2A is an image of a Western blot showing the results of an a2N-derived peptide pull-down assay. The indicated a2N-derived peptides were immobilized on streptavidin-beads and incubated with purified recombinant GST-ARNO(wt). Interacting complexes were eluted and analyzed by Western blotting using monoclonal anti-GST antibodies.
FIG. 2B is an image of a Western blot showing the results of a pull-down assay with selected a2N-derived interacting peptides incubated with either GST (negative control) or GST-ARNO(wt). The first two lanes show the patterns obtained when either GST-only (lane 1) or GST-ARNO(wt) (lane 2) were loaded onto the gel.
Peptides were synthesized, purified by HPLC and analyzed by mass spectrometry in the MGH Peptide/Protein Core Facility. All a2N-derived peptides were synthesized with a biotin-tag on the N-terminus for immobilization on streptavidin-agarose beads and with an additional C-terminal cysteine residue for immobilization on beads using sulfhydryl-specific crosslinkers. A peptide corresponding to the PB-domain of ARNO was synthesized containing either a non-phosphorylated or a phosphorylated Ser392 residue. Peptide stock solutions were prepared in DMSO at 5 mM concentration and stored at −20° C. […]

ARNO PB-domain = target: T2, ARNO PB-domain (Homo sapiens, UniProt Q99418); test: GST pull-down of in vitro translated a2N with ARNO PB-domain; settings: GST pull-down with GST- and His-tagged PB-domain construct
T2 construct: v) 379-400aa, polybasic (PB) domain; made in house; host or cells: E. coli BL21(DE3)
Procedure: (§1) The purified recombinant GST-ARNO(wt) and GST-tagged ARNO domain constructs ([…]) were incubated with 10 μl of in vitro translated 6His-a2N recombinant protein at 4° C. for 2 hours in 500 μl of binding buffer (10 mM HEPES, 1 mM EDTA, 1 mM DTT, 100 mM NaCl, 10% glycerol, 0.1% NP-40) with gentle rotation. Then the interacting recombinant proteins were immobilized on glutathione beads by incubation with 50 μl of 50% glutathione Sepharose 4B slurry for 2 hours at 4° C. The beads were collected by centrifugation and washed 5 times with 500 μl ice-cold binding buffer. Interacting proteins were eluted by boiling in SDS-PAGE sample buffer for 10 min at 95° C., resolved by SDS-PAGE and analyzed by Western blotting using polyclonal anti-a2N antibodies. […]
(§2) To examine the ability of these well-defined and functionally distinct domains of ARNO to interact with a2N1-402, full-length ARNO(wt) and its four domains were cloned separately for bacterial expression of recombinant proteins (FIG. 3). […] Interacting proteins were detected by western blot analysis with a2-specific antibodies as described above.

ARNO CC-domain = target: T3, ARNO CC-domain (Homo sapiens, UniProt Q99418); test: GST pull-down of in vitro translated a2N with ARNO CC-domain; settings: Western blot anti-a2N
T3 construct: ii) 1-60aa, coiled-coil (CC) domain; made in house; host or cells: E. coli BL21(DE3)
T3 sequence (Q99418 1-60): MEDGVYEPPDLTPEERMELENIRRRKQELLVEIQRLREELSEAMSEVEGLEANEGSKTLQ
Procedure: as §1, §2

interaction of a2N-derived peptide with GST-ARNO(wt) in pull-down (GST-ARNO(wt); Western blot anti-GST, GST-only as control): specific interaction
interaction with ARNO (asterisk mark in Table 1) (GST-ARNO(wt); biotin-tagged peptides on streptavidin beads): Bio-MGSLFRSE SMCLAQLFL-Cys *
Molecule: CSCC[C@H](NC(=O)CCCC[C@@H]1SC[C@@H]2NC(=O)N[C@@H]21)C(=O)NCC(=O)N[C@@H](CO)C(=O)N[C@@H](CC(C)C)C(=O)N[C@@H](Cc1ccccc1)C(=O)N[C@@H](CCCNC(=N)N)C(=O)N[C@@H](CO)C(=O)N[C@@H](CCC(=O)O)C(=O)N[C@@H](CO)C(=O)N[C@@H](CCSC)C(=O)N[C@@H](CS)C(=O)N[C@@H](CC(C)C)C(=O)N[C@@H](C)C(=O)N[C@@H](CCC(N)=O)C(=O)N[C@@H](CC(C)C)C(=O)N[C@@H](Cc1ccccc1)C(=O)N[C@@H](CC(C)C)C(=O)N[C@@H](CS)C(=O)O [a2N-01, Bio-MGSLFRSE SMCLAQLFL-Cys] (Biotin-MGSLFRSESMCLAQLFLC-OH; N-terminus and C-terminus assumed)

interaction of a2N with ARNO PB-domain (ARNO PB-domain): no interaction
interaction of a2N with ARNO CC-domain (ARNO CC-domain): no interaction
B1: a2N: recombinant N-terminal cytosolic tail, amino acid residues 1-402 of mouse V-ATPase a2-subunit (protein)
chain: MGSLFRSESMCLAQLFLQSGTAYECLSALGEKGLVQFRDLNQNVSSFQRKFVGEVKRCEELERILVYLVQEITRADIPLPEGEASPPAPPLKHVLEMQEQLQKLEVELREVTKNKEKLRKNLLELVEYTHMLRVTKTFLKRNVEFEPTYEEFPALENDSLLDYSCMQRLGAKLGFVSGLIQQGRVEAFERMLWRACKGYTIVTYAELDECLEDPETGEVIKWYVFLISFWGEQIGHKVKKICDCYHCHIYPYPNTAEERREIQEGLNTRIQDLYTVLHKTEDYLRQVLCKAAESVCSRVVQVRKMKAIYHMLNMCSFDVTNKCLIAEVWCPEVDLPGLRRALEEGSRESGATIPSFMNTIPTKETPPTLIRTNKFTEGFQNIVDAYGVGSYREVNPALFTII
modifications: left off: small tags and cut ends
notes: recombinant N-terminal cytosolic tail, amino acid residues 1-402 of mouse V-ATPase a2-subunit

Source: patent publication US20140162285A1, “Methods of Modulating Vesicular Trafficking” (The General Hospital Corporation, priority 2009, published 2014)
